Measured values from paper PMC11455950, “Effects of SZV-2649, a new multiple ion channel inhibitor mexiletine analogue” (Scientific Reports, 2024).

Key:
[1] = tested on: late sodium current (INaL); experiment: Whole-cell patch-clamp, late sodium current in dog ventricular myocytes; format: cell-based; details: 10 µM, dog left ventricular myocytes
Protocol: (§1) The effects of SZV-2649 on transmemrane ionic currents were investigated in dog cardiac myocytes after a 5-minute superfusion of the drug.
The late sodium current (INaL) was investigated by application of 2-second-long test pulses to -20 mV from the holding potential of -120 mV with the pulsing cycle length of 5 s. In the internal (pipette) solution, KCl was replaced by 125 mM CsCl to block potassium currents and the external solution contained 1 µM nisoldipine, 0.5 µM HMR-1556 and 0.1 µM dofetilide in order to block ICaL, IKs and IKr currents, respectively.
Ventricular myocytes from Beagle dogs were enzymatically dissociated as described in detail previously. A single droplet of cell suspension was placed in a transparent recording chamber mounted on the stage of an inverted microscope (Olympus IX51, Olympus, Tokyo, Japan), and individual myocytes were allowed to settle and adhere to the chamber bottom for at least 5–10 min before superfusion was initiated and maintained by gravity. Only rod-shaped cells with clear striations were used. […]
(§2) The membrane currents were recorded with Axopatch-200B amplifiers (Molecular Devices, Sunnyvale, CA, USA) by means of the whole-cell configuration of the patch-clamp technique. […]

[2] = tested on: slow delayed rectifier potassium current (IKs); experiment: Whole-cell patch-clamp, slow delayed rectifier potassium current in dog ventricular myocytes; format: cell-based; details: 10 µM, dog left ventricular myocytes
Protocol: as §1
The slow delayed rectifier potassium current (IKs) was elicited from the holding potential of -80 mV with a prepulse to -40 mV. The IKs tail current was measured at a post pulse to -40 mV after 5-second-long test pulses from − 20 mV to 50 mV using 10 mV increments at the pulsing cycle length of 10 s (see inset of Fig. 4B). The effect of SZV-2649 was investigated at the concentration of 10 µM.
Ventricular myocytes from Beagle dogs were enzymatically dissociated as described in detail previously. […]
as §2
The inward rectifier (IK1), the transient outward (Ito), the rapid (IKr) and the slow (IKs) delayed rectifier potassium currents were recorded in HEPES-buffered Tyrode’s solution. […] When IKr was recorded, IKs was inhibited by using the selective IKs blocker HMR-1556 (0.5 µM). […]

Compound: CC(N)COc1c(I)cc(C#N)cc1I.Cl (centres unmarked) [SZV-2649, 4-(2-aminopropoxy)-3,5-diiodobenzonitrile hydrochloride]
- Effect on magnitude of INaL [1]: significantly decreased
- Effect on amplitude of IKs tail current [2]: did not change or only minimally decreased
